The record followed here is PubChem BioAssay (NCI).

What all share (assay): NCI anticancer screen, dose series, 48 h
For assay [1], the system named is A549 NSCLC.
For assay [2], the system named is MCF7 breast.
The test system of assay [3] is MDA-MB-435.
Assay [4] deals with NCI-H460 lung.
Assay [5] concerns OVCAR-4 ovarian.
Assay [6] relates to PC-3 prostate.
In assay [7] the test system is SK-OV-3 ovarian.
The test system of assay [8] is SN12C renal.
Assay [9] has as its system TK-10 renal.
Assay [10] has as its system SK-MEL-28 melanoma.

Structures are written as SMILES.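 Interpolation was linear, between the two tested concentrations surrounding the appropriate level; five concentrations were tested over 48 hours in 96-well plates. GI50: concentration for 50% inhibition of growth. TGI marks complete inhibition of growth.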

Regarding `COc1c(C)c(C/C=C(\C)CC/C=C(\C)CCC=C(C)C)c(OC)c(OC)c1OC`, the TGI in assay [1], in assay [2], in assay [3], in [4], in assay [5] and in assay [6] was > 100 µM throughout. Further, the TGI in assay [7], in assay [8] and in [9] was > 100 µM each time.
In the case of `Nc1ncnc2c1ncn2Cc1cccc(CCl)c1`, the TGI in [1] was determined as 91.4 µM; in assay [2] it was 30.3 µM; in [3], 44.6 µM; in assay [4] it was 29.9 µM; in assay [5], 47.3 µM; in [6], 35.5 µM. For the same compound, the TGI worked out at 51.1 µM in [10], 29.3 µM in [8] and 34.4 µM in assay [9].
For `CC1(C2CCC3(C)OC3C2)CO1` (stereo unspecified), the TGI in assay [1], in [4], in assay [5], in [10], in assay [7] and in assay [8] was > 100 µM in each case. For the same compound, the TGI in [9] was > 100 µM.
Take `NC(=O)CO/N=C1/C(c2c(O)[nH]c3ccccc23)=Nc2ccccc21`: the TGI in [1], in [3], in [4], in [5], in assay [6] and in assay [10] was > 100 µM throughout. In addition, the TGI in assay [7], in assay [8] and in [9] was > 100 µM throughout.
On to `Cc1cc2cc3c(cc2c(-c2ccc(N)cc2)n1)OCO3`, for which the TGI in assay [1] was > 100 µM; in assay [2] it was 53.6 µM; in assay [3] it was > 100 µM; in assay [4], > 100 µM; in [6], > 100 µM; in assay [7] it was > 100 µM. The TGI in [8] and in assay [9] was > 100 µM each time.
With `CC(=O)/C(=C\c1ccc(Cl)c(Cl)c1)C(=O)C(C)CN(C)C` (stereo unspecified), the TGI is 35.7 µM in [1]; 22.4 µM in [2]; 12.3 µM in assay [3]; 48.9 µM in assay [4]; 17 µM in assay [6]; 21 µM in [10]. Also, the TGI in assay [7] worked out at 37.1 µM; in assay [8], 20.6 µM; in [9], 5.82 µM.
On to `O=C(NNCc1ccc(Cl)cc1)Nc1cccc2ccccc12`, for which the TGI in assay [2], in assay [3], in [4], in assay [5], in assay [6] and in assay [10] was > 100 µM in each case. Also, the TGI in assay [8] and in assay [9] was > 100 µM in each case.
As for `CC(C)OC1OC(CO)C(O)CC1n1cc(F)c(=O)[nH]c1=O` (stereo unspecified), the TGI in assay [1], in [2], in assay [3], in assay [4], in assay [5] and in assay [6] was > 100 µM throughout. For the same compound, the TGI in [10], in assay [8] and in assay [9] was > 100 µM in each case.
As to `CC1CC/C(=C\c2ccc(Cl)cc2)c2nc(N)c(C#N)c(-c3ccc(Cl)cc3)c21` (stereo unspecified), the TGI in [1], in assay [2], in assay [3], in assay [5], in assay [6] and in assay [10] was > 100 µM each time. Further, the TGI in assay [7], in [8] and in [9] was > 100 µM throughout.
`COC(=O)CCCC(=O)NC1=C(NCc2ccccc2)C(=O)c2ccccc2C1=O`: the TGI in [1], in assay [2], in assay [3], in [4], in assay [5] and in [10] was > 100 µM in each case. For the same compound, the TGI in assay [7], in [8] and in [9] was > 100 µM throughout.
As to `COC(=O)[C@@H]1CN(C(=O)c2ccccc2)C(=O)N1C(=O)OCc1ccccc1`, the TGI in assay [1], in assay [2], in assay [3], in assay [4], in assay [5] and in [10] was > 100 µM each time. The TGI in assay [7], in [8] and in assay [9] was > 100 µM in each case.
Turning to `Cc1ccc(S(=O)(=O)N(CC(O)COc2ccccc2)c2ccc(F)cc2F)cc1` (stereo unspecified), the TGI amounted to 26.9 µM in assay [1]; 31.4 µM in assay [3]; 33.7 µM in [4]; 23.8 µM in assay [5]; 25.3 µM in assay [6]; 29.7 µM in assay [10]. Besides, the results for the TGI in assay [7], in assay [8] and in assay [9] were 41.6 µM, 34.2 µM and 45.9 µM, respectively.
As to `CC(C)(C)C1CC[C@H](O)[C@H]([C@H](O)CC2CC(=O)N(c3ccccc3)C(=O)C2)C1` (stereo partly specified), the TGI in assay [1], in [2], in assay [3], in assay [4], in [5] and in [6] was > 100 µM in each case. For the same compound, the TGI in [10], in [8] and in [9] was > 100 µM in each case.
For `C/C(Nc1ccc(Cl)cc1Cl)=C1/CCOC1=O`, the TGI in [1], in [2], in [3], in assay [4], in assay [5] and in [6] was > 100 µM in each case. For the same compound, the TGI in assay [10], in assay [8] and in [9] was > 100 µM in each case.
Consider `C#CCC1(C(=O)OCC)C(=O)c2ccccc2N(C)C1=O` (stereo unspecified), for which the TGI in [4], in [10], in [7], in [8] and in assay [9] was > 100 µM in each case.
For the compound `CC(=O)O[C@H]1CC[C@@]2(C)[C@H](CC[C@@H]3[C@@H]2CC[C@]2(C)[C@@H](c4ccc(=O)oc4)C[C@H]4O[C@]342)C1`, the TGI in [1] stood at 0.759 µM; in assay [2], 22.1 µM; in [4], 0.878 µM; in assay [5], 3.86 µM; in [10] it was 20.9 µM; in assay [7] it was 5.68 µM. In addition, in assay [8], the TGI came out at 9.49 µM.
`CCC(CC(C)C)Nc1ccc(NC(CC)CC(C)C)cc1` (stereo unspecified): the GI50 in [1] was 24.8 µM; in assay [2], 15.2 µM; in assay [3] it was 18.2 µM; in assay [4], 17.5 µM; in assay [5] it was 13.9 µM; in assay [6], 4 µM. In addition, the results for the GI50 in assay [10], in [8] and in assay [9] were 13.7 µM, 16 µM and 17.7 µM, respectively. For the same compound, the TGI in [1] was found to be 65.6 µM; in assay [2] it was 28.4 µM; in assay [3] it was 40 µM; in assay [4], 40.9 µM; in assay [5], 26.8 µM; in assay [6] it was 16.3 µM. Besides, the TGI turned out to be 28.1 µM in [10], 32.2 µM in assay [8] and 32.3 µM in [9].
On to `Cc1nc2ccc(Cl)cc2c2c1CCN2c1ccccc1`, for which the TGI was 46.6 µM in assay [1]; 36 µM in [2]; 21.3 µM in assay [3]; 23.9 µM in assay [4]; > 100 µM in [5]; 29.5 µM in assay [6]. The TGI worked out at 28.5 µM in assay [10], 17.2 µM in assay [8] and 37.7 µM in assay [9].
Take `Cc1cc2c(c(=O)n1C)SCC2`: the TGI in [1], in [3], in assay [4], in assay [5], in assay [6] and in [10] was > 100 µM throughout. Further, the TGI in assay [7], in assay [8] and in [9] was > 100 µM in each case.
For `Cc1ccc(-c2n[nH]c(=O)n2/N=C\c2ccccc2)cc1`, the TGI in assay [1], in assay [2], in assay [3], in assay [4], in assay [5] and in assay [6] was > 100 µM in each case. In addition, the TGI in assay [10] is > 100 µM; in [8], > 90.4 µM; in [9] it was > 100 µM.
`CO[C@]1(CN2CCN3CCCC[C@@H]3C2)/C=C/C[C@H](C)[C@@H](C)S(=O)(=O)NC(=O)c2ccc3c(c2)N(C[C@@H]2CC[C@H]21)C[C@@]1(CCCc2cc(Cl)ccc21)CO3`: the GI50 in assay [1] is 2.75 µM; in assay [3], 1.05 µM; in [5], 1.69 µM; in [10], 1.86 µM; in [7] it was 2.67 µM; in assay [8], 1.6 µM. The GI50 in assay [9] was 2.33 µM. Besides, the TGI was 10.6 µM in assay [1]; 2.42 µM in assay [3]; 6.61 µM in assay [5]; 3.44 µM in assay [10]; 7.5 µM in [7]; 3.08 µM in assay [8]. Besides, the TGI in [9] is 6.39 µM.
Consider `CC(=O)Nc1cc(Nc2cc(=O)[nH]c(=O)[nH]2)ccc1C`, for which the TGI in assay [1], in assay [2], in assay [3], in [4], in assay [5] and in [6] was > 100 µM in each case. The TGI in assay [10], in [8] and in assay [9] was > 100 µM in each case.
Take `Cc1csc(NC(=NCCN2CCOCC2)Nc2nc(C)cs2)n1`: the TGI in [1], in assay [2], in [4], in [5], in assay [10] and in assay [7] was > 100 µM in each case. Besides, in assay [8], the TGI was > 100 µM.
With `C=C(C)[C@@H]1CC[C@]2(C(=O)O)CC[C@]3(C)[C@H](CCC4[C@@]5(C)CC[C@H](C(=O)/C=C/c6ccc(O)c(O)c6)C(C)(C)[C@@H]5CC[C@]43C)[C@@H]12` (stereo partly specified), the TGI in [1] was > 100 µM; in [2], 14.9 µM; in assay [3] it was 16.7 µM; in [4], 16.2 µM; in assay [5] it was > 100 µM; in [6], 21.8 µM. The TGI came out at 19.4 µM in assay [7] and 39.9 µM in assay [9].
In the case of `CC(=O)CC(=O)CCC(=O)O`, the TGI in [1], in [4], in assay [10], in assay [7], in assay [8] and in [9] was > 100 µM in each case.
As to `O=C1C=CC(=O)c2c(Cl)ccc(O)c21`, the TGI in assay [1] is > 100 µM; in assay [2], 31.1 µM; in assay [4] it was > 100 µM; in assay [5], 32.5 µM; in assay [10], 33 µM; in assay [7] it was > 100 µM. Further, the TGI in assay [8] was found to be 39 µM.
For `CCOC(=O)c1cn(C)c(=S)n2c1nc1ccccc12`, the TGI in assay [1], in [2], in assay [3], in assay [4], in assay [5] and in [6] was > 100 µM each time. Moreover, the TGI in [10] and in [8] was > 100 µM each time.
On to `C/C(=N\Nc1nc2ccccc2[nH]1)c1cc2ccccc2cn1`, for which the TGI is > 100 µM in assay [1]; 2.31 µM in [2]; 1.1 µM in [3]; 1.45 µM in [4]; 2.41 µM in assay [5]; 0.429 µM in assay [10]. The TGI in assay [7] came to 12.7 µM; in [8], 1.06 µM; in [9], 5.16 µM.
With `COc1ccccc1CNCCCCCCCCCCCCN1C(=O)c2ccc3c4c(ccc(c24)C1=O)C(=O)N(CCCCCCCCCCCCNCc1ccccc1OC)C3=O`, the GI50 in assay [1] was > 5 µM; in [5], > 50 µM; in [6], > 5 µM; in assay [10], > 50 µM; in assay [7], > 50 µM; in [8], > 50 µM. The GI50 in [9] is 0.795 µM. Moreover, the TGI was > 5 µM in assay [1]; > 50 µM in assay [5]; > 5 µM in assay [6]; > 50 µM in assay [10]; > 50 µM in assay [7]; > 50 µM in [8]. Further, the TGI in assay [9] came to 1.47 µM.
